Assay [1] has as its system Mus musculus. Briefly: Anticholinergic activity in Carworth CF1 mouse assessed as dose required to produce pupil dilation to 1.5 micrometer units in 50% mouse at 324 mg/kg, ip. The format is functional, organism-based. Also on record: dose 324 mg/kg.
Assay [2] concerns Cavia porcellus. Kind of assay: Antihistamine activity in Duncan-Hartley guinea pig assessed as protection of animal from death caused by histamine aerosol-induced bronchoconstriction at 12.5 mg/kg, ip. Also on record: dose 12.5 mg/kg. The format is functional, organism-based.
The test system of assay [3] is Rattus norvegicus. Briefly: Antiserotonin activity in Sprague-Dawley rat assessed as inhibition of feet weight gain at 10 mg/kg, sc after 30 mins. The format is functional, organism-based. Also on record: dose 10 mg/kg.
In assay [4] the test system is Mus musculus. Briefly: Anticholinergic activity in ip dosed Carworth CF1 mouse assessed as dose required to produce pupil dilation to 1.5 micrometer units in 50% mouse. The class given is functional.
Assay [5] relates to Rattus norvegicus. Briefly: Antiserotonin activity in sc dosed Sprague-Dawley rat assessed as inhibition of feet weight gain after 30 mins. To be noted: 0.5 h.
The species named for assay [6] is Cavia porcellus. Briefly: animal or person. The format is functional. To be noted: Duncan-Hartley, ip.
Description: Antihistamine activity in ip dosed Duncan-Hartley guinea pig assessed as protection of animal from death caused by histamine aerosol-induced bronchoconstriction
The subject of assay [7] is Mus musculus. Kind of assay: Anticholinergic activity in ip dosed Carworth CF1 mouse assessed as pupil dilation to 15 micrometer units in 100% mouse. The format is functional.

The text below walks through data of ChEMBL document CHEMBL3243946, “A comparison of the antiserotonin, antihistamine, and anticholinergic activity of cyproheptadine with analogues having furan nuclei fused to the 10,11-vinylene bridge” (1977).

The source made the active and inactive calls. The rule behind the calls is not given here. Where only a bound is given, the exact number is not on record here.

In the case of `CN1CCC(=C2c3ccccc3C3COCC3c3ccccc32)CC1` (stereo not drawn), the inhibition result in the assay with Mus musculus [1], in the assay on Cavia porcellus [2] and with Rattus norvegicus [3] was “inactive” throughout.
As for `CN1CCC(=C2c3ccccc3C=Cc3ccccc32)CC1.Cl` [CYPROHEPTADINE HYDROCHLORIDE], the ED in the assay on Mus musculus [4] amounted to 4 mg/kg. Besides, the figures for the ED50 in the assay on Rattus norvegicus [5] and in the assay filed under Cavia porcellus [6] were 0.02 mg/kg and 0.05 mg/kg, respectively.
Turning to `CN1CCC(=C2c3ccccc3C(CO)=C(CO)c3ccccc32)CC1`, the ED in the assay on Mus musculus [4] amounted to 4 mg/kg. Moreover, the inhibition result in the assay on Rattus norvegicus [3] is “inactive”. The 50% effect level in the assay filed under Cavia porcellus [6] (ED50) was put at a dose of 12.5 mg/kg.
On to `C1=CC2OC1C1=C2c2ccccc2C(=C2CCNCC2)c2ccccc21`, for which the inhibition result in the assay with Mus musculus [1], with Cavia porcellus [2] and with Rattus norvegicus [3] was “inactive” throughout.
Regarding `c1ccc2c(c1)C(=C1CCNCC1)c1ccccc1-c1cocc1-2`, the inhibition entry with Mus musculus [1], in the assay with Cavia porcellus [2] and in the assay with Rattus norvegicus [3] was “inactive” each time.
For the molecule `CN1CCC(=C2c3ccccc3C3=C(c4ccccc42)C2(C)C=CC3O2)CC1` (stereo not drawn), the inhibition entry with Mus musculus [1], in the assay on Cavia porcellus [2] and in the assay on Rattus norvegicus [3] was “inactive” each time.
With `CN1CCC(=C2c3ccccc3C3=C(c4ccccc42)C2CCC3O2)CC1`, the inhibition entry in the assay with Mus musculus [1], with Cavia porcellus [2] and in the assay on Rattus norvegicus [3] was “inactive” each time.
For the molecule `Cc1occ2c1-c1ccccc1C(=C1CCN(C)CC1)c1ccccc1-2`, the ED in the assay on Mus musculus [4] amounted to 4 mg/kg. The inhibition entry with Cavia porcellus [2] and in the assay on Rattus norvegicus [3] was “inactive” each time.
Take `CN1CCC(=C2c3ccccc3-c3cocc3-c3ccccc32)CC1`: in the assay on Mus musculus [4], the ED amounted to 36 mg/kg. In addition, the inhibition entry in the assay on Cavia porcellus [2] and in the assay on Rattus norvegicus [3] was “inactive” each time.
For the molecule `CN1CCC(=C2c3ccccc3C3=C(C(=O)OC3)c3ccccc32)CC1.O=C(O)C(=O)O`, the ED in the assay on Mus musculus [7] was under 4 mg/kg. Besides, the inhibition entry in the assay on Rattus norvegicus [3] was “inactive”. This molecule also registered an ED50 in the assay filed under Cavia porcellus [6] of 9.7 mg/kg.
As to `CN1CCC(=C2c3ccccc3C3=C(c4ccccc42)C2C=CC3O2)CC1`, the inhibition entry with Mus musculus [1], with Cavia porcellus [2] and in the assay with Rattus norvegicus [3] was “inactive” throughout.

The ED50 is the dose that gives a 50% effect, or the effect in half of the subjects.
